In one data set the test system is A549. As to the kind of experiment: Cytotoxicity against human A549 cells by MTT assay. It counts as functional, cell-based. Background: Formazan colour is commonly taken as a measure of viable cells.
Another data set concerns HL-60. The data set can be described thus: Cytotoxicity against human HL60 cells by MTT assay. It counts as functional, cell-based.
Another data set deals with A-431. As to the kind of experiment: Cytotoxicity against human A431 cells by MTT assay. Format: functional, cell-based.
The subject of another data set is HepG2. As to the kind of experiment: Cytotoxicity against human HepG2 cells by MTT assay. It counts as functional, cell-based.
The next data set concerns SK-OV-3. The data set can be described thus: Cytotoxicity against human SKOV3 cells by MTT assay. It counts as functional, cell-based.
Data set [1] is described as follows: Cytotoxicity against human C8166 cells after 3 days by MTT assay. It counts as cell-based.
For data set [2], the system named is Human immunodeficiency virus 1. As to the kind of experiment: Antiviral activity against HIV1 3B infected in human C8166 cells assessed as inhibition of viral replication. It counts as functional, organism-based. To be noted: Human immunodeficiency virus 1, 3B.
Data set [3] in a line: Therapeutic index, ratio of CC50 for human C8166 cells to EC50 for HIV1 3B. It counts as cell-based. To be noted: read-out: Ratio CC50/EC50.

The values that follow come from ChEMBL document CHEMBL1208736, “Synthesis of highly functionalized 2,4-diaminoquinazolines as anticancer and anti-HIV agents” (Bioorg Med Chem Lett, 2010).

In brackets after ≈: the same amount, converted by molar mass.

A word on the IC50: it is the midpoint of a concentration-inhibition curve. Read a high IC50 as lower potency. For `N#Cc1c(NCc2ccccc2)c(Cl)c2nc(N)nc(N)c2c1NCc1ccccc1`, the IC50 in the data set on A549 was greater than 1000 µg/mL; in the data set on HL-60, 8.5 µg/mL (≈ 19.8 µM); with A-431 it was 716 µg/mL (≈ 1670 µM); with HepG2, 19.2 µg/mL (≈ 44.7 µM); with SK-OV-3 it was 3.7 µg/mL (≈ 8.61 µM).

For `N#Cc1c(NCc2ccccc2)c(F)c2nc(N)nc(N)c2c1NCc1ccccc1`, the IC50 was found to be 13.9 µg/mL (≈ 33.6 µM) in the data set with A549; 7.2 µg/mL (≈ 17.4 µM) in the data set with HL-60; 20.7 µg/mL (≈ 50.1 µM) in the data set on A-431; 13.4 µg/mL (≈ 32.4 µM) in the data set with HepG2; 2.5 µg/mL (≈ 6.05 µM) in the data set with SK-OV-3.

By CC50 is commonly meant the concentration that lowers cell viability or growth by half. A high value points to better tolerance by the cells. The EC50 is the concentration at which the effect is half-maximal. With `N#Cc1c(F)c(F)c2nc(N)nc(N)c2c1F`, the half-maximal inhibitory concentration (IC50) in the data set with A549 is greater than 1000 µg/mL; in the data set on HL-60, 51 µg/mL (≈ 213 µM); in the data set with A-431 it was 105 µg/mL (≈ 439 µM); in the data set on HepG2, 5 µg/mL (≈ 20.9 µM); in the data set with SK-OV-3 it was 8 µg/mL (≈ 33.5 µM). Besides, the CC50 at 72 h in data set [1] came to 36.4 µg/mL (≈ 152 µM). In addition, in data set [2], the concentration for a half-maximal effect (EC50) worked out at 0.6 µg/mL (≈ 2.51 µM). The selectivity ratio in data set [3] was 59.6.

On to `CCN(CC)c1c(C#N)c(F)c2c(N)nc(N)nc2c1Cl`, for which the IC50 in the data set with A549 turned out to be 7.1 µg/mL (≈ 23 µM); with HL-60, 2.3 µg/mL (≈ 7.45 µM); with A-431 it was 7.3 µg/mL (≈ 23.6 µM); in the data set with HepG2, 2 µg/mL (≈ 6.48 µM); in the data set with SK-OV-3, 0.4 µg/mL (≈ 1.3 µM).

In the case of `CCCCNc1c(C#N)c(NCCCC)c2c(N)nc(N)nc2c1F`, the IC50 is greater than 1000 µg/mL with A549; 1.4 µg/mL (≈ 4.05 µM) with HL-60; 1 µg/mL (≈ 2.89 µM) in the data set on A-431; 2.6 µg/mL (≈ 7.53 µM) in the data set on HepG2; 1.6 µg/mL (≈ 4.63 µM) in the data set on SK-OV-3.

Consider `N#Cc1c(N)c(Cl)c2nc(N)nc(N)c2c1Cl`, for which the IC50 with A549 came to 188 µg/mL (≈ 699 µM); with HL-60, 6.7 µg/mL (≈ 24.9 µM); in the data set with A-431, 9.5 µg/mL (≈ 35.3 µM); in the data set with HepG2 it was 3.7 µg/mL (≈ 13.7 µM); in the data set with SK-OV-3, 0.8 µg/mL (≈ 2.97 µM).

Regarding `CCN(CC)c1c(C#N)c(F)c2c(N)nc(N)nc2c1F`, the IC50 was determined as 26.5 µg/mL (≈ 90.7 µM) in the data set on A549; 6.4 µg/mL (≈ 21.9 µM) in the data set with HL-60; 16.4 µg/mL (≈ 56.1 µM) with A-431; 1.3 µg/mL (≈ 4.45 µM) in the data set with HepG2; 1 µg/mL (≈ 3.42 µM) with SK-OV-3.

Turning to `N#Cc1c(Cl)c(Cl)c2nc(N)nc(N)c2c1Cl`, the IC50 was 29.7 µg/mL (≈ 103 µM) in the data set with A549; 19 µg/mL (≈ 65.9 µM) in the data set with HL-60; 3.3 µg/mL (≈ 11.4 µM) in the data set on A-431; 2.5 µg/mL (≈ 8.66 µM) in the data set with HepG2; 1.3 µg/mL (≈ 4.51 µM) in the data set on SK-OV-3. The 50% cytotoxic concentration (CC50) at 72 h in data set [1] was found to be 14.3 µg/mL (≈ 49.6 µM). In addition, the EC50 in data set [2] was determined as 1 µg/mL (≈ 3.47 µM). In addition, the selectivity ratio in data set [3] came to 8.

For `N#Cc1c(F)c(Cl)c2nc(N)nc(N)c2c1F`, the IC50 in the data set on A549 was 30.8 µg/mL (≈ 120 µM); in the data set on HL-60, 0.04 µg/mL (≈ 0.156 µM); with A-431, 1.5 µg/mL (≈ 5.87 µM); in the data set on HepG2, 4.8 µg/mL (≈ 18.8 µM); in the data set on SK-OV-3, 0.14 µg/mL (≈ 0.548 µM). Further, it took 3.9 µg/mL (≈ 15.3 µM) to reach half-maximal cytotoxicity in data set [1] (CC50 at 72 h). Moreover, in data set [2], the 50% effective concentration (EC50) came out at 0.1 µg/mL (≈ 0.391 µM). Besides, in data set [3], the selectivity ratio turned out to be 7.

Consider `COc1ccc(Nc2c(C#N)c(F)c3c(N)nc(N)nc3c2Cl)cc1`, for which the IC50 with A549 was found to be 103 µg/mL (≈ 287 µM); in the data set with HL-60 it was 2.2 µg/mL (≈ 6.13 µM); in the data set with A-431, 5.1 µg/mL (≈ 14.2 µM); in the data set with HepG2 it was 10.2 µg/mL (≈ 28.4 µM); with SK-OV-3, 1.6 µg/mL (≈ 4.46 µM).

For `CCCCNc1c(C#N)c(NCCCC)c2c(N)nc(N)nc2c1Cl`, the IC50 in the data set on A549 was 2 µg/mL (≈ 5.53 µM); in the data set on HL-60 it was 0.7 µg/mL (≈ 1.93 µM); with A-431, 2.5 µg/mL (≈ 6.91 µM); in the data set with HepG2, 1.3 µg/mL (≈ 3.59 µM); with SK-OV-3, 0.6 µg/mL (≈ 1.66 µM).

With `CC(C)(C)Nc1c(C#N)c(F)c2c(N)nc(N)nc2c1F`, the concentration for half-maximal inhibition (IC50) in the data set on A549 is greater than 1000 µg/mL; in the data set on HL-60 it was 18 µg/mL (≈ 61.6 µM); with A-431, 11.9 µg/mL (≈ 40.7 µM); with HepG2, 16.2 µg/mL (≈ 55.4 µM); in the data set on SK-OV-3 it was 2.4 µg/mL (≈ 8.21 µM).

As to `N#Cc1c(Nc2ccccc2)c(Cl)c2nc(N)nc(N)c2c1F`, the IC50 in the data set on A549 was greater than 1000 µg/mL; with HL-60, 47 µg/mL (≈ 143 µM); with A-431, 4.8 µg/mL (≈ 14.6 µM); in the data set with HepG2, 5.9 µg/mL (≈ 17.9 µM); with SK-OV-3 it was 3.7 µg/mL (≈ 11.3 µM). Further, the CC50 at 72 h in data set [1] was found to be 6.3 µg/mL (≈ 19.2 µM). The concentration giving a half-maximal response (EC50) in data set [2] turned out to be 0.4 µg/mL (≈ 1.22 µM). For the same compound, the selectivity ratio in data set [3] is 13.5.

`N#Cc1c(OCc2ccccc2)c(F)c2nc(N)nc(N)c2c1OCc1ccccc1`: the IC50 was greater than 1000 µg/mL in the data set on A549; 62 µg/mL (≈ 149 µM) with HL-60; 68.3 µg/mL (≈ 164 µM) with A-431; 84 µg/mL (≈ 202 µM) in the data set on HepG2; 14 µg/mL (≈ 33.7 µM) in the data set with SK-OV-3.

As to `N#Cc1c(Nc2ccccc2)c(F)c2nc(N)nc(N)c2c1F`, the 50% inhibitory concentration (IC50) in the data set on A549 was greater than 1000 µg/mL; in the data set on HL-60, 40 µg/mL (≈ 128 µM); in the data set on A-431 it was 7 µg/mL (≈ 22.4 µM); in the data set on HepG2 it was 1.4 µg/mL (≈ 4.48 µM); in the data set with SK-OV-3, 6.5 µg/mL (≈ 20.8 µM). In addition, it took 6.9 µg/mL (≈ 22.1 µM) to reach half-maximal cytotoxicity in data set [1] (CC50 at 72 h). For the same compound, the EC50 in data set [2] is 0.2 µg/mL (≈ 0.64 µM). Besides, in data set [3], the selectivity ratio was 16.3.

For the compound `N#Cc1c(Sc2ccccc2)c(Cl)c2nc(N)nc(N)c2c1Sc1ccccc1`, the IC50 in the data set on A549 is greater than 1000 µg/mL; with HL-60, 26 µg/mL (≈ 59.6 µM); in the data set with A-431 it was 32.4 µg/mL (≈ 74.3 µM); with HepG2 it was 5 µg/mL (≈ 11.5 µM); in the data set on SK-OV-3, 9.4 µg/mL (≈ 21.6 µM). The half-maximal cytotoxic concentration (CC50) at 72 h in data set [1] stood at 46.8 µg/mL (≈ 107 µM). In data set [2], the EC50 worked out at 3.2 µg/mL (≈ 7.34 µM). Besides, the selectivity ratio in data set [3] was found to be 10.6.

Turning to `N#Cc1c(Nc2ccc(Cl)cc2)c(F)c2nc(N)nc(N)c2c1F`, the IC50 in the data set with A549 was found to be 115 µg/mL (≈ 332 µM); with HL-60 it was 35 µg/mL (≈ 101 µM); in the data set with A-431, 4.5 µg/mL (≈ 13 µM); in the data set with HepG2, 1 µg/mL (≈ 2.88 µM); in the data set on SK-OV-3, 4.8 µg/mL (≈ 13.8 µM).

Regarding `CCCSc1c(C#N)c(SCCC)c2c(N)nc(N)nc2c1Cl`, the IC50 in the data set with A549 is greater than 1000 µg/mL; in the data set on HL-60, 7.7 µg/mL (≈ 20.9 µM); in the data set on A-431 it was 535 µg/mL (≈ 1450 µM); in the data set with HepG2 it was greater than 1000 µg/mL; in the data set on SK-OV-3, 1.2 µg/mL (≈ 3.26 µM). In addition, the 50% cytotoxic concentration (CC50) at 72 h in data set [1] is greater than 200 µg/mL. Moreover, the EC50 in data set [2] came out at 13.3 µg/mL (≈ 36.1 µM). In data set [3], the selectivity ratio was 11.5.

In the case of `CC(C)(C)Nc1c(C#N)c(F)c2c(N)nc(N)nc2c1Cl`, the half-inhibitory concentration (IC50) with A549 is 313 µg/mL (≈ 1010 µM); in the data set on HL-60, 5.2 µg/mL (≈ 16.8 µM); in the data set on A-431, 6.5 µg/mL (≈ 21.1 µM); in the data set on HepG2, 5.4 µg/mL (≈ 17.5 µM); in the data set with SK-OV-3 it was 2.1 µg/mL (≈ 6.8 µM).

Consider `N#Cc1c(NCc2ccccc2)c(Cl)c2nc(N)nc(N)c2c1F`, for which the IC50 in the data set with A549 came out at 34.1 µg/mL (≈ 99.5 µM); in the data set on HL-60 it was 0.3 µg/mL (≈ 0.875 µM); with A-431, 1.4 µg/mL (≈ 4.08 µM); with HepG2, 1.4 µg/mL (≈ 4.08 µM); with SK-OV-3, 0.8 µg/mL (≈ 2.33 µM).

On to `N#Cc1c(NCc2ccccc2)c(F)c2nc(N)nc(N)c2c1F`, for which the IC50 with A549 is greater than 1000 µg/mL; with HL-60, 14 µg/mL (≈ 42.9 µM); in the data set with A-431, 12.9 µg/mL (≈ 39.5 µM); with HepG2, 27.8 µg/mL (≈ 85.2 µM); in the data set with SK-OV-3, 11 µg/mL (≈ 33.7 µM).

Regarding `N#Cc1c(Oc2ccccc2)c(Cl)c2nc(N)nc(N)c2c1Oc1ccccc1`, the concentration for half-maximal inhibition (IC50) with A549 was greater than 1000 µg/mL; in the data set with HL-60, 88 µg/mL (≈ 218 µM); with A-431 it was greater than 1000 µg/mL; with HepG2, greater than 1000 µg/mL; in the data set with SK-OV-3, 14 µg/mL (≈ 34.7 µM).

With `Cc1cn([C@H]2C[C@H](N=[N+]=[N-])[C@@H](CO)O2)c(=O)[nH]c1=O` [ZIDOVUDINE], the EC50 in data set [2] stood at 0.004 µg/mL (≈ 0.015 µM). Besides, the selectivity ratio in data set [3] came out at 286000.
